{"source": "ChEMBL document CHEMBL1139190", "about": "“Pyrazolo[1,5-a]pyridine antiherpetics: effects of the C3 substituent on antiviral activity” (Bioorg Med Chem Lett, 2007)", "key": {"[1]": {"test_system": "Human alphaherpesvirus 1", "test": "Antiviral activity against HSV1 in Vero SC16 cells by capture hybrid method", "format": "functional, organism-based", "conditions": "Human alphaherpesvirus 1, Vero"}, "[2]": {"test": "Therapeutic index, ratio of CC50 for Vero SC16 cells to EC50 for HSV1", "format": "cell-based", "conditions": "monkey, read-out: Ratio CC50/EC50"}, "[3]": {"test": "Cytotoxicity against Vero SC16 cells", "format": "cell-based", "conditions": "chlorocebus sabaeus"}}}
{"smiles": "Fc1ccc(-c2nn3c(NC4CCCC4)cccc3c2-c2ccc(F)nc2)cc1", "values": [{"measurement": "EC50", "setting": "[1]", "value": "> 40", "unit": "µM"}]}
{"smiles": "Fc1ccc(-c2nn3c(NC4CCCC4)cccc3c2-c2cc[nH]n2)cc1", "values": [{"measurement": "selectivity ratio", "setting": "[2]", "value": 6}, {"measurement": "CC50", "setting": "[3]", "value": 14, "unit": "µM"}, {"measurement": "EC50", "setting": "[1]", "value": 2.5, "unit": "µM"}]}
{"smiles": "Cc1nc(-c2c(-c3ccc(F)cc3)nn3c(NC4CCCC4)cccc23)co1", "values": [{"measurement": "EC50", "setting": "[1]", "value": "> 40", "unit": "µM"}]}
{"smiles": "Nc1n[nH]cc1-c1c(-c2ccc(F)cc2)nn2c(NC3CCCC3)cccc12", "values": [{"measurement": "selectivity ratio", "setting": "[2]", "value": 4}, {"measurement": "CC50", "setting": "[3]", "value": 20, "unit": "µM"}, {"measurement": "EC50", "setting": "[1]", "value": 4.9, "unit": "µM"}]}
{"smiles": "Fc1ccc(-c2nn3c(NC4CCCC4)cccc3c2-c2cccnc2)cc1", "values": [{"measurement": "selectivity ratio", "setting": "[2]", "value": "> 11"}, {"measurement": "CC50", "setting": "[3]", "value": "> 40", "unit": "µM"}, {"measurement": "EC50", "setting": "[1]", "value": 3.4, "unit": "µM"}]}
{"smiles": "Fc1ccc(-c2nn3c(NC4CCCC4)cccc3c2-c2ccco2)cc1", "values": [{"measurement": "EC50", "setting": "[1]", "value": "> 10", "unit": "µM"}]}
{"smiles": "Fc1ccc(-c2nn3c(NC4CCCC4)cccc3c2-c2ccno2)cc1", "values": [{"measurement": "EC50", "setting": "[1]", "value": "> 10", "unit": "µM"}]}
{"smiles": "[N-]=[N+]=Nc1cc(-c2c(-c3ccc(F)cc3)nn3c(NC4CCCC4)cccc23)ccn1", "values": [{"measurement": "EC50", "setting": "[1]", "value": "> 40", "unit": "µM"}]}
{"smiles": "Fc1ccc(-c2nn3c(NC4CCCC4)cccc3c2-c2ccnc(NC3CCCC3)c2)cc1", "values": [{"measurement": "selectivity ratio", "setting": "[2]", "value": "> 108"}, {"measurement": "CC50", "setting": "[3]", "value": "> 40", "unit": "µM"}, {"measurement": "EC50", "setting": "[1]", "value": 0.37, "unit": "µM"}]}
{"smiles": "Fc1ccc(-c2nn3c(NC4CCCC4)cccc3c2-c2ccnc(NC3CCCC3)n2)cc1", "values": [{"measurement": "selectivity ratio", "setting": "[2]", "value": "> 615"}, {"measurement": "CC50", "setting": "[3]", "value": "> 160", "unit": "µM"}, {"measurement": "EC50", "setting": "[1]", "value": 0.26, "unit": "µM"}]}
{"smiles": "NNc1cc(-c2c(-c3ccc(F)cc3)nn3c(NC4CCCC4)cccc23)ccn1", "values": [{"measurement": "selectivity ratio", "setting": "[2]", "value": 7}, {"measurement": "CC50", "setting": "[3]", "value": 40, "unit": "µM"}, {"measurement": "EC50", "setting": "[1]", "value": 5.7, "unit": "µM"}]}
{"smiles": "Fc1ccc(-c2nn3c(NC4CCCC4)cccc3c2-c2ccsc2)cc1", "values": [{"measurement": "EC50", "setting": "[1]", "value": "> 10", "unit": "µM"}]}
{"smiles": "Fc1ccc(-c2nn3c(NC4CCCC4)cccc3c2-c2c[nH]c(NC3CCCC3)n2)cc1", "values": [{"measurement": "selectivity ratio", "setting": "[2]", "value": 5}, {"measurement": "CC50", "setting": "[3]", "value": 40, "unit": "µM"}, {"measurement": "EC50", "setting": "[1]", "value": 7.9, "unit": "µM"}]}
{"smiles": "Fc1ccc(-c2nn3c(NC4CCCC4)cccc3c2-c2ccnnc2)cc1", "values": [{"measurement": "EC50", "setting": "[1]", "value": "> 10", "unit": "µM"}]}
{"smiles": "Fc1ccc(-c2nn3c(NC4CCCC4)cccc3c2-c2ccc(NC3CCCC3)nc2)cc1", "values": [{"measurement": "EC50", "setting": "[1]", "value": "> 40", "unit": "µM"}]}
{"smiles": "Fc1ccc(-c2nn3c(NC4CCCC4)cccc3c2-c2ccoc2)cc1", "values": [{"measurement": "EC50", "setting": "[1]", "value": "> 10", "unit": "µM"}]}
{"smiles": "Nc1nc(-c2c(-c3ccc(F)cc3)nn3c(NC4CCCC4)cccc23)cs1", "values": [{"measurement": "EC50", "setting": "[1]", "value": 8.6, "unit": "µM"}]}
{"smiles": "Nc1nccc(-c2c(-c3ccc(F)cc3)nn3c(NC4CCCC4)cccc23)n1", "values": [{"measurement": "selectivity ratio", "setting": "[2]", "value": 11}, {"measurement": "CC50", "setting": "[3]", "value": 46, "unit": "µM"}, {"measurement": "EC50", "setting": "[1]", "value": 4.1, "unit": "µM"}]}
{"smiles": "Fc1ccc(-c2nn3c(NC4CCCC4)cccc3c2-c2cc(NC3CCCC3)ncn2)cc1", "values": [{"measurement": "selectivity ratio", "setting": "[2]", "value": "> 46"}, {"measurement": "CC50", "setting": "[3]", "value": "> 40", "unit": "µM"}, {"measurement": "EC50", "setting": "[1]", "value": 0.85, "unit": "µM"}]}
{"smiles": "Nc1nc(-c2c(-c3ccc(F)cc3)nn3c(NC4CCCC4)cccc23)c[nH]1", "values": [{"measurement": "EC50", "setting": "[1]", "value": "> 10", "unit": "µM"}]}
{"smiles": "Nc1cccc(-c2c(-c3ccc(F)cc3)nn3c(NC4CCCC4)cccc23)c1", "values": [{"measurement": "EC50", "setting": "[1]", "value": "> 10", "unit": "µM"}]}
{"smiles": "Fc1ccc(-c2nn3c(NC4CCCC4)cccc3c2-c2ccc3[nH]ccc3c2)cc1", "values": [{"measurement": "selectivity ratio", "setting": "[2]", "value": 5}, {"measurement": "CC50", "setting": "[3]", "value": 20, "unit": "µM"}, {"measurement": "EC50", "setting": "[1]", "value": 3.9, "unit": "µM"}]}
{"smiles": "Fc1ccc(-c2nn3c(NC4CCCC4)cccc3c2-c2ccnc(F)c2)cc1", "values": [{"measurement": "EC50", "setting": "[1]", "value": "> 40", "unit": "µM"}]}
{"smiles": "Fc1ccc(-c2nn3c(NC4CCCC4)cccc3c2-c2cn[nH]c2)cc1", "values": [{"measurement": "selectivity ratio", "setting": "[2]", "value": 2}, {"measurement": "CC50", "setting": "[3]", "value": 10, "unit": "µM"}, {"measurement": "EC50", "setting": "[1]", "value": 4.7, "unit": "µM"}]}
{"smiles": "Fc1ccc(-c2nn3c(NC4CCCC4)cccc3c2-c2cccnc2NC2CCCC2)cc1", "values": [{"measurement": "EC50", "setting": "[1]", "value": "> 40", "unit": "µM"}]}
